Among the data in doi:10.1101/2022.04.02.486822v1 (biorxiv, 2022) are KI values, retold here.

This assay addresses T1, EcGhrA (Escherichia coli, UniProt P75913).
T1 sequence (P75913 1-312): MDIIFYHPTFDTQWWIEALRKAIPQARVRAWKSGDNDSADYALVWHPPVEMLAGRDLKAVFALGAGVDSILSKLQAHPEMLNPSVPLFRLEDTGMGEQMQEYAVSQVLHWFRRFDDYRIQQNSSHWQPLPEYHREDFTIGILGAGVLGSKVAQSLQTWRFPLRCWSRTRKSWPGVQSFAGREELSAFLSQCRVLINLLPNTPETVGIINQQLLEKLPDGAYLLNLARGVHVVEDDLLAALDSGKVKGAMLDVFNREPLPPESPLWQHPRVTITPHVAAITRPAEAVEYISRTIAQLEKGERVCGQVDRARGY
As to the kind of experiment: NADPH oxidation at […] nm, substrate inhibition fit. The class given is biochemical. Conditions: 200 µM NADPH, 50 mM HEPES, pH 7.5, 22 °C.

As for `O=CC(=O)O` [compound 6, glyoxylate], the KI turned out to be 1.5 ± 1.1 mM.

`O=C(O)CC(=O)C(=O)O` [compound 7, oxaloacetate] gave a KI of 52 ± 15 mM.
